Data set [1] concerns L02. Put plainly: Cytotoxicity against human L02 cells assessed as reduction in cell viability at 12.5 uM incubated for 24 hrs by MTT assay. Format: toxicity, cell-based. Particulars: l02, 24 h.
The subject of data set [2] is L02. Put plainly: Cytotoxicity against human L02 cells assessed as reduction in cell viability at 50 uM incubated for 24 hrs by MTT assay. Format: toxicity, cell-based. The following applies: l02, 24 h.
Data set [3] concerns PC-12. The data set can be described thus: Neuroprotective activity against H2O2 induced rat PC12 cells assessed as increase in cell viability at 50 uM measured after 24 hrs by MTT assay relative to control. In kind it is functional.
Data set [4] deals with T1, Cholinesterase (Homo sapiens, UniProt P06276). Put plainly: Binding affinity to human BuChE (unknown origin) assessed as decarbamolyation rate at 0.025 to 100 uM incubated for 60 mins. The following applies: dose 0.025-100 µM.
Data set [5] addresses Acetylcholinesterase (Electrophorus electricus) (UniProt O42275). The data set can be described thus: Inhibition of electric eel AChE using acetylthiocholine iodide as substrate preincubated with enzyme for 20 mins followed by substrate addition and measured after 20 mins by Ellman's method. Details: concentration or dose not given beside the values. Particulars: time 40.0 min.

Data set [6] concerns the target Cholinesterase (Equus caballus, UniProt P81908). The data set can be described thus: Inhibition of equine BuChE using butyrylthiocholine iodide as substrate preincubated with enzyme for 20 mins followed by substrate addition and measured after 20 mins by Ellman's method.
Data set [7] concerns the target Acetylcholinesterase (Homo sapiens) (UniProt P22303). The data set can be described thus: Inhibition of recombinant human AChE using acetylthiocholine iodide as substrate incubated for 5 mins relative to control.
For data set [8], the target named is T1, Cholinesterase. Put plainly: Inhibition of human BuChE using butyrylthiocholine iodide as substrate incubated for 5 mins.
Data set [9] concerns the target T2, Fatty-acid amide hydrolase 1 (Homo sapiens, UniProt O00519).
T2 sequence (O00519 whole entry): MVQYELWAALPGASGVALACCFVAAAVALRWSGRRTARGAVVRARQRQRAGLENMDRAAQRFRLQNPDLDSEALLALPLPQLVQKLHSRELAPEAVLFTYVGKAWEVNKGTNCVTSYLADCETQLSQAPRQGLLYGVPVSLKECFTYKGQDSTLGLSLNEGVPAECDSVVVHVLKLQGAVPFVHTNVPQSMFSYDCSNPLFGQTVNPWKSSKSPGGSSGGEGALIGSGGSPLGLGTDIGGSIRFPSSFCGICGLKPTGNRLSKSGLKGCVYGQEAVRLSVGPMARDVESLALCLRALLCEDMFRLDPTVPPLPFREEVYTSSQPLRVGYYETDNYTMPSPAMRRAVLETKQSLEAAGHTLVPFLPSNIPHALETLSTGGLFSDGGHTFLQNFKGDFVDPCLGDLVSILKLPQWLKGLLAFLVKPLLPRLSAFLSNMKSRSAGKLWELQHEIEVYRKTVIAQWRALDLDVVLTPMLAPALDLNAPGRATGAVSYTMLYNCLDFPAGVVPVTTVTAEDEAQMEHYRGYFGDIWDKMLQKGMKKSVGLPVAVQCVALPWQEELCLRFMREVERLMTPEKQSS
Put plainly: Inhibition of human FAAH using arachidonoyl amide as substrate incubated for 30 mins by fluorescence-based cayman assay.

The target of data set [10] is T1, Cholinesterase. Put plainly: Binding affinity to human BuChE (unknown origin) assessed as equilibrium dissociation constant at 0.025 to 100 uM incubated for 60 mins.
The target in data set [11] is T1, Cholinesterase. Put plainly: Binding affinity to human BuChE (unknown origin) assessed as carbamolyation rate at 0.025 to 100 uM incubated for 60 mins. The following applies: dose 0.025-100 µM.
For data set [12], the target named is T1, Cholinesterase. The data set can be described thus: Binding affinity to human BuChE (unknown origin) assessed as overall carbamolyation rate at 0.025 to 100 uM incubated for 60 mins.
Data set [13] has as its system L02. The data set can be described thus: Cytotoxicity against human L02 cells assessed as reduction in cell viability at 25 uM incubated for 24 hrs by MTT assay. Format: toxicity, cell-based. Particulars: l02, 24 h.
In data set [14] the test system is PC-12. Put plainly: Neuroprotective activity against H2O2 induced rat PC12 cells assessed as cell viability measured after 24 hrs by MTT assay. Format: functional, cell-based. The following applies: dose 6.25-50 µM.
Another data set can be described thus: in vitro. Particulars: PAMPA, pH 7.4.
Data set [15] concerns the target Acetylcholinesterase (Electrophorus electricus) (UniProt O42275). The data set can be described thus: Inhibition of electric eel AChE using acetylthiocholine iodide as substrate preincubated with enzyme for 20 mins followed by substrate addition and measured after 20 mins by Ellman's method relative to control. Details: concentration or dose not given beside the values. Particulars: time 40.0 min.

Activity calls are given as the source filed them. The rule behind the calls is not given here.

Acetylcholinesterase (Electrophorus electricus), sequence (O42275 24-633 limits assumed): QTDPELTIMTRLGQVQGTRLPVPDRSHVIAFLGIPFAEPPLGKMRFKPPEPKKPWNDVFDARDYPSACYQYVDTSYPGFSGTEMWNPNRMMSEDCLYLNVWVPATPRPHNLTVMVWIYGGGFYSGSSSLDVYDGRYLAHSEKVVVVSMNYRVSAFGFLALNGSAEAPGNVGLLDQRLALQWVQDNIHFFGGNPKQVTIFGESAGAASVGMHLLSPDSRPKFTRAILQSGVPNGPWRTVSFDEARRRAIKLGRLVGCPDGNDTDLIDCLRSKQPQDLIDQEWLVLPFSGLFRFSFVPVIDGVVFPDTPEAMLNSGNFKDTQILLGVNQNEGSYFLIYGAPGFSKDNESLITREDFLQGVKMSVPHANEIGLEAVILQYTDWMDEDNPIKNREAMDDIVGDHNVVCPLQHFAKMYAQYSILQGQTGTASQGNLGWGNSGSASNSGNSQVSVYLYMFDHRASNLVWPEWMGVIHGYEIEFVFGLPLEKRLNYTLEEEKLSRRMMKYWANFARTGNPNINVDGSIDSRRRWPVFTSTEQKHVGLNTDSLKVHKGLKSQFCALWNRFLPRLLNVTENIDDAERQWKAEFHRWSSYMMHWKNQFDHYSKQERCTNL
T1 sequence (P06276 whole entry): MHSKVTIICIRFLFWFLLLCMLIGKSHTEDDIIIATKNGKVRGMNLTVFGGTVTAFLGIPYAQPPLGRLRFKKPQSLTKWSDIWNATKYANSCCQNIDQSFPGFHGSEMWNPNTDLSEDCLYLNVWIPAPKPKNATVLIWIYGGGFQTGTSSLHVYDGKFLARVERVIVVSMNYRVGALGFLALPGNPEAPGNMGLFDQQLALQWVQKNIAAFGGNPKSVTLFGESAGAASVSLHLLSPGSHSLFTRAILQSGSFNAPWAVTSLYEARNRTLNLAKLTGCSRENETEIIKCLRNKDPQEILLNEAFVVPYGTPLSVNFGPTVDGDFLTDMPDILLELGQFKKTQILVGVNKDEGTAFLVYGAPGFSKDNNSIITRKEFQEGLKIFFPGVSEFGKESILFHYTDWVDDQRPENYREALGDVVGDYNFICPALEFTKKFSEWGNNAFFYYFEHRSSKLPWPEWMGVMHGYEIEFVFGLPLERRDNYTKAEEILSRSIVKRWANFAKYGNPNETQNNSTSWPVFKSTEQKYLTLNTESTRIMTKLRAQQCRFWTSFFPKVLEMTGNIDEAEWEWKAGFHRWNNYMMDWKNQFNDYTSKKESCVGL
Cholinesterase (Equus caballus, UniProt P81908), sequence (P81908 whole entry): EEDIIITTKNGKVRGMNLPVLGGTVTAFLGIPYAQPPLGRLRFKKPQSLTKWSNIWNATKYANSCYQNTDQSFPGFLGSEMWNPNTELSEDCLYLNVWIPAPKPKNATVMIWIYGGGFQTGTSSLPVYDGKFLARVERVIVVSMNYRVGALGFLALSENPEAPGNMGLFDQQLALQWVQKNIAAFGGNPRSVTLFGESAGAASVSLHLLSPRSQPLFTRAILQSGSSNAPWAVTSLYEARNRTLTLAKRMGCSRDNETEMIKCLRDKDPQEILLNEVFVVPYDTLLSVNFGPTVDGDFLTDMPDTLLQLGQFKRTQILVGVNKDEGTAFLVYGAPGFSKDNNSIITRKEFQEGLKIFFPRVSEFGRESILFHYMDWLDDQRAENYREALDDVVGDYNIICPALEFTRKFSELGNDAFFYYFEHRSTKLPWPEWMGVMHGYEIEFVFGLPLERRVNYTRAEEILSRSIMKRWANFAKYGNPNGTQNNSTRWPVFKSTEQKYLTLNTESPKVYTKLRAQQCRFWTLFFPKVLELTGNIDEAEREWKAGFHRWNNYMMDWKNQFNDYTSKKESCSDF
Acetylcholinesterase (Homo sapiens), sequence (P22303 whole entry): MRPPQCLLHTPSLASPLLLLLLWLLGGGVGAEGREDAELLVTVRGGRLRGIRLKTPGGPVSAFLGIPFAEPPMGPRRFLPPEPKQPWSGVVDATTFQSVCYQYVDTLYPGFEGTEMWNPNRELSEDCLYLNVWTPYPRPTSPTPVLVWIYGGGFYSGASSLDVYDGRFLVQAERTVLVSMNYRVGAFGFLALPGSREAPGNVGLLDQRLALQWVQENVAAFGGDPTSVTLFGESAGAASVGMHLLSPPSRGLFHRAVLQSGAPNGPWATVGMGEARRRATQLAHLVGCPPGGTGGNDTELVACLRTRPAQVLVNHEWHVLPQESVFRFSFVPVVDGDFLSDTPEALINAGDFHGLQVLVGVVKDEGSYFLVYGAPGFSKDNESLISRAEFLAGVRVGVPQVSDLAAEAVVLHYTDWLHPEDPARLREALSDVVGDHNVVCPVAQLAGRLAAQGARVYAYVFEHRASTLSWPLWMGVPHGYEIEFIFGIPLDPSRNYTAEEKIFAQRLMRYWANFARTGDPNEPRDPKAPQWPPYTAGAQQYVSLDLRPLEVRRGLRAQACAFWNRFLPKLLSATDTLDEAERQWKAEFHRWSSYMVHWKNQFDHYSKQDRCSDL
Description for in vitro: Permeability of the compound in PBS at pH 7.4 incubated for 18 hrs by PAMPA-BBB assay

For `COc1cc2c(cc1OC)C(=O)C(CC1CCN(Cc3ccccc3)CC1)C2` (centres undefined) [DONEPEZIL], the Activity entry is “Non-toxic” in the data set with L02 [1], 83.4% with L02 [2] and 43% in the data set with PC-12 [3].
Consider `COc1ccc(C(C)=O)c(OC(=O)N2CCCCC2)c1`, for which the results for the K on Cholinesterase [4] and at Cholinesterase [11] were 0.024 min⁻¹ and 0.41 min⁻¹, respectively. For the same compound, the inhibition in [5] was 6.9%. In addition, the IC50 against Cholinesterase [6] is 6 nM; against Cholinesterase [8] it was 113 nM; in data set [9], 8.02 µM. In addition, the inhibition entry in data set [7] is “inactive”. Besides, the dissociation constant (Kd) on Cholinesterase [10] came out at 300 nM. Besides, the Ki on Cholinesterase [12] is reported as 0.31 10^-3/uM/min. The Activity entry in the data set on L02 [1] is “Non-toxic”; with L02 [2], 81.4%; with L02 [13], 81.6%; in the data set on PC-12 [3], 42%; in the data set with PC-12 [14], “Dose-dependent-effect”. In addition, the Papp at 18 h in “in vitro” came to 17.5 ×10⁻⁶ cm/s.
Turning to `COc1ccc(C(C)=O)c(OC(=O)N(C)Cc2ccccc2)c1`, the inhibition in [5] worked out at 6.6%. On Cholinesterase [6], this compound registered an IC50 of 190 nM.
Taken in the same sequence, the figures for `C=CCc1ccc(OC(=O)N2CCCCC2)c(OC)c1` were 42% and 310 nM.
Taken in the same sequence, the figures for `Cc1ccc(C(C)C)cc1OC(=O)N(C)Cc1ccc(Br)cc1` were 32% and 1960 nM.
In the same order, the values of `COc1ccc(C(C)=O)c(OC(=O)N(C)Cc2ccccc2F)c1` are “inactive” and 940 nM.
In the case of `COc1ccc(C(C)=O)c(OC(=O)N(C)C)c1`, the inhibition in data set [5] was found to be 8.3%. At Cholinesterase [6], this compound had an IC50 of 1640 nM.
Taken in the same sequence, the figures for `CNC(=O)Oc1cc(OC)ccc1C(C)=O` were 23% and 2540 nM.
Taken in the same sequence, the figures for `COc1ccc(C(C)=O)c(OC(=O)N(C)Cc2ccc(Br)cc2)c1` were 34% and 2810 nM.
In [5], `C=CCc1ccc(OC(=O)N(C)Cc2ccccc2)c(OC)c1` registered an inhibition of 25%. Also, the inhibition result in data set [15] is “inactive”.
For `COc1ccc(C(C)=O)c(OC(=O)N2CCC(C)CC2)c1`, the inhibition stood at 33% in [5] and 23% in [7]. Further, the IC50 on Cholinesterase [6] came out at 80 nM; against Cholinesterase [8] it was 1930 nM; in [9], 28.4 µM.
In turn, `CCN(C)C(=O)Oc1cc(OC)ccc1C(C)=O` displayed an inhibition in [5] of 1.7%. For the same compound, the IC50 on Cholinesterase [6] turned out to be 3680 nM.
In the same order, the values of `Cc1ccc(C(C)C)cc1OC(=O)N(C)Cc1cccc(Cl)c1` are 36% and 1130 nM.
On to `COc1ccc(C(C)=O)c(OC(=O)N(C)Cc2ccc(Cl)cc2)c1`, for which the inhibition in data set [5] was 5.8%. Further, the half-maximal inhibitory concentration (IC50) against Cholinesterase [6] came out at 57 nM; on Cholinesterase [8], 89 nM; in data set [9], 16.6 µM. Moreover, in data set [7], the inhibition entry was “inactive”.
Turning to `COc1ccc(C(C)=O)c(OC(=O)N(C)Cc2cccc(Br)c2)c1`, the inhibition result in [5] was “inactive”. This compound also had a half-maximal inhibitory concentration (IC50) against Cholinesterase [6] of 3410 nM.
Consider `Cc1ccc(C(C)C)cc1OC(=O)N(C)C`, for which, in [5], the inhibition is 62%. The IC50 against Cholinesterase [6] worked out at 590 nM.
As to `C=CCc1ccc(OC(=O)N(C)Cc2cccc(Br)c2)c(OC)c1`, the inhibition worked out at 17% in data set [5] and 67% in data set [15].
For `Cc1ccc(C(C)C)cc1OC(=O)N(C)Cc1cccc(Br)c1`, the inhibition in data set [5] is 37%. Besides, 3810 nM corresponded to half-maximal inhibition on Cholinesterase [6] (IC50).
In the same order, the values of `COc1ccc(C(C)=O)c(OC(=O)N2CCCC2)c1` are 21% and 1930 nM.
In the case of `C=CCc1ccc(OC(=O)NC)c(OC)c1`, the inhibition worked out at 42% in data set [5] and 53% in [15].
For the compound `O=C(Oc1ccc([N+](=O)[O-])cc1)N1CCN(Cc2cccc(Oc3ccccc3)c2)CC1`, the IC50 in data set [9] is 0.011 µM.
With `CCN(C)C(=O)Oc1cc(C(C)C)ccc1C`, the inhibition result in data set [5] is “inactive”. This compound also gave a 50% inhibitory concentration (IC50) at Cholinesterase [6] of 780 nM.
Taken in the same sequence, the figures for `COc1ccc(C(C)=O)c(OC(=O)N2CCC(Cc3ccccc3)CC2)c1` were 43% and 310 nM.
Consider `C=CCc1ccc(OC(=O)N(C)CC)c(OC)c1`, for which the inhibition is 69% in [5] and 74% in [15].
In the same order, the values of `C=CCc1ccc(OC(=O)N(C)C)c(OC)c1` are “inactive” and 69%.
As to `CNC(=O)Oc1cc(C(C)C)ccc1C`, in [5], the inhibition was 56%. On Cholinesterase [6], this compound gave an IC50 of 2960 nM.
In [5], `COc1ccc(C(C)=O)c(OC(=O)N2CCc3ccccc3C2)c1` had an inhibition of 27%. Further, the IC50 against Cholinesterase [6] is 11500 nM.
Take `CCN(C)C(=O)Oc1cccc([C@H](C)N(C)C)c1` [RIVASTIGMINE]: the inhibition in data set [7] was 4.65%. This compound came in with an IC50 in data set [9] of 14 µM.
For `COc1ccc(C(C)=O)c(OC(=O)N(C)Cc2cccc(F)c2)c1`, the inhibition in data set [5] stood at 20%. The same compound returned a 50% inhibitory concentration (IC50) on Cholinesterase [6] of 400 nM.
With `C=CCc1ccc(OC(=O)N(C)Cc2ccc(Br)cc2)c(OC)c1`, the inhibition result in [5] was “inactive”. Further, in [15], the inhibition was determined as 57%.
The compound `Cc1ccc(C(C)C)cc1OC(=O)N1CCCCC1` registered a half-inhibitory concentration (IC50) on Cholinesterase [6] of 30 nM.
For the compound `Cc1ccc(C(C)C)cc1OC(=O)N1CCCC1`, the inhibition result in data set [5] is “inactive”. The half-inhibitory concentration (IC50) against Cholinesterase [6] amounted to 680 nM.
In the same order, the values of `COc1ccc(C(C)=O)c(OC(=O)Nc2ccc(Cl)cc2)c1` are 4.6% and 1270 nM.
Taken in the same sequence, the figures for `C=CCc1ccc(OC(=O)N2CCCC2)c(OC)c1` were “inactive” and 2000 nM.
Take `C=CCc1ccc(OC(=O)N2CCc3ccccc3C2)c(OC)c1`: the inhibition amounted to 65% in data set [5] and 23% in data set [15].
For the compound `COc1ccc(C(C)=O)c(OC(=O)N2CCc3cc(OC)c(OC)cc3C2)c1`, in data set [5], the inhibition entry is “inactive”. This compound gave a half-maximal inhibitory concentration (IC50) at Cholinesterase [6] of 3520 nM.
Turning to `CCN(Cc1ccc(Cl)cc1)C(=O)Oc1cc(OC)ccc1C(C)=O`, the inhibition result in [5] is “inactive”. At Cholinesterase [6], this compound had an IC50 of 420 nM.
Taken in the same sequence, the figures for `COc1ccc(C(C)=O)c(OC(=O)N2CCSC2)c1` were 44% and 640 nM.

The record behind these values is ChEMBL document CHEMBL6087398, “Natural phenol carbamates: Selective BuChE/FAAH dual inhibitors show neuroprotection in an Alzheimer's disease mouse model” (Eur J Med Chem, 2025).
